Assay results from patent publication US20200096789A1, “Optical Aid” (priority 2017, published 2020).

Columns and labels:
Assay type in all cases: cell-based
U251 GBM cell line = test: selenite treatment in conjunction with SEPHS2 KO (growth); settings: 12 uM selenite; growth normalized to SEPHS2 KO cells
Protocol: FIGS. 2A-D provide evidence that SEPHS2 plays a detoxifying role in U251 GBM cell line. (A) Knockdown of either SEPHS2 or SEPSECS can block selenoprotein expression. (B) However, only SEPHS2 KO has significant toxicity. (C) Model for ‘pushing’ toxicity in which if SEPHS2 plays a detoxifying role, its KO should synergize with increased selenited input. (D) Synergy is indeed seen with 12 uM selenite treatment in conjunction with SEPHS2 KO. Growth is normalized to the already lower growth rate of the SEPHS2 KO cells, thus the bars in asterisks indicate (statistically significant) synergy.
We had classified SEPHS2 as a putative detoxifier as its substrate, selenide, is the most toxic form of selenium^12. The notion of SEPHS2 as a detoxifier has not previously been explored, and SEPHS2 is simply known for its enzymatic role (which cannot be replaced by its isoform, SEPHS1^13) as an intermediate step in producing selenocysteine for selenocysteinyl-tRNA production. The selenocysteine producing pathway is a simple and linear pathway starting from dietary […]—or […] or other inorganic forms which can be converted to selenite, selenite being the most common form^14,15. Selenite is imported and converted through in an unclear manner to form selenide, which is then metabolized by SEPHS2 to form selenophosphate, accompanied by ATP hydrolysis. […]

U251 cells = test: CRISPR/Cas9 screen of candidate selenium transporters: toxicity of 12 μM selenite; settings: both guides against SLC7A11, U251 cells
Protocol: We compared the cells that are sensitive to SEPHS2 KO vs those that are not sensitive to identify key drivers of selenide production. We examined these lines for susceptibility to high, toxic doses of selenite as it is an abundant and bioavailable form of selenium. We observed a strong correlation between susceptibility to high-dose selenite and to SEPHS2 KO (FIG. 4A). […] Two guides per candidate transporter were knocked out in U251 cells and effects on the toxicity of 12 μM selenite were examined.

SLC7A11 = biological target: T1, SLC7A11 (Homo sapiens, UniProt Q9UPY5); test: total intracellular selenium levels after selenite supplementation; settings: knockout of SLC7A11
T1 construct: endogenous in cells
T1 sequence (Q9UPY5 1-501): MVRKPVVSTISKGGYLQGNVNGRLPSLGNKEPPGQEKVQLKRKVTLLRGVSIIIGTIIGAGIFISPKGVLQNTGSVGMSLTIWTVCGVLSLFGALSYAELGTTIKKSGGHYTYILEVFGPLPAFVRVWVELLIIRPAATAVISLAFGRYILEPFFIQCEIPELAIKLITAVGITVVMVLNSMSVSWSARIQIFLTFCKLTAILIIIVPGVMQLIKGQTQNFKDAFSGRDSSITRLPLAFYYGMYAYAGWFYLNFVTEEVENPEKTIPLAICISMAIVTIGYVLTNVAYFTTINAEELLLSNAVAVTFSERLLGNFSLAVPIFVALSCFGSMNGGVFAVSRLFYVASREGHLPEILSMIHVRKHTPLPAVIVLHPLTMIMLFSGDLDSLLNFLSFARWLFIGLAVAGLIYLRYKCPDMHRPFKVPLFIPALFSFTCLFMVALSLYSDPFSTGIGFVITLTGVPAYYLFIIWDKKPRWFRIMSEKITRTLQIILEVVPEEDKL
T1 sequence (P08195 1-529 partner): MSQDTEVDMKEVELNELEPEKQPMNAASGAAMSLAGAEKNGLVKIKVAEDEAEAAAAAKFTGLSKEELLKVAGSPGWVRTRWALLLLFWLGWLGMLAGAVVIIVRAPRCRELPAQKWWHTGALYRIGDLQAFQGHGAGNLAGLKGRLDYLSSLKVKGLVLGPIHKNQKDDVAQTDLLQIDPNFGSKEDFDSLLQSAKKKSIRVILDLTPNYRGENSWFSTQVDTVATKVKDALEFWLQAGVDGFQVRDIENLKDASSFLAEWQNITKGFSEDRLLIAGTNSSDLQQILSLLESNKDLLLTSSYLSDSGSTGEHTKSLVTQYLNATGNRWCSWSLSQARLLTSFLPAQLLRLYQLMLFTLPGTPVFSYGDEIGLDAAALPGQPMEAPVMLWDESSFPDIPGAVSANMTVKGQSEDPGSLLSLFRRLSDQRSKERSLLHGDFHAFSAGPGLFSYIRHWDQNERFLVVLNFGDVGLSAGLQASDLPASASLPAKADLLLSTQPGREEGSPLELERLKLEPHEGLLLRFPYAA
Source text: SLC7A11 was 5.5-fold enriched in SEPHS2-sensitive cell lines (FIG. 4C).

GPX4 and SEPHS2 = test: selenoprotein expression after selenite supplementation; settings: supplementation with selenite to media

In the case of `O=[Se](O)O` [selenite], the “growth with selenite in conjunction with SEPHS2 KO” value (U251 GBM cell line) is reported as “Synergy”, the “toxicity of high-dose selenite after knockout of SLC7A11” value (U251 cells) is reported as “complete rescue” and the “total intracellular selenium due to supplemented selenite” value (SLC7A11) is reported as “prevented any increase”. The “expression of selenoproteins GPX4 and SEPHS2” value (GPX4 and SEPHS2) was “increased expression”.
